Experimental findings from ChEMBL document CHEMBL1201862, “PubChem BioAssay data set” (2004) are described below.

Test systems include LOX IMVI; SF-268; SK-MEL-28; COLO 205; NCI-H226; CCRF-CEM; HT-29; RXF 393; A498; SNB-19; SN12C; HCT-15; SK-OV-3; K562; M14; KM12; HOP-92.
Holding throughout (test): growth of human tumour cells (NCI), 48 h

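Tested at 5 concentrations; 48 h exposure; 96-well plates; endpoints linearly interpolated, else capped at highest concentration. The concentration for 50% growth inhibition is given as GI50.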 Calls of active or inactive are those of the source. Rule as the data show it: active = GI50 up to about 1.1 µM and inactive = higher.

Consider `O=C(CC1(O)C(=O)Nc2ccc([N+](=O)[O-])cc21)c1ccncc1` (stereo unspecified), for which the GI50 in the assay on LOX IMVI was 15.5 µM (inactive); with SF-268, 36.7 µM (inactive); in the assay on SK-MEL-28, 32.3 µM (inactive); with COLO 205 it was 77.1 µM (inactive); in the assay with NCI-H226 it was 83 µM (inactive); in the assay on CCRF-CEM, 29 µM (inactive). The GI50 was 34 µM (inactive) in the assay on HT-29; 14.8 µM (inactive) with RXF 393; > 100 µM (inactive) in the assay on A498; 54.3 µM (inactive) in the assay with SNB-19; 43.6 µM (inactive) in the assay with SN12C; 83.8 µM in the assay with HCT-15. Further, the GI50 in the assay with SK-OV-3 was > 100 µM (inactive); with K562, 20.5 µM (inactive); with M14, 51.6 µM (inactive); in the assay on KM12, 39 µM (inactive).
Consider `Cc1nc2ccccc2c(=O)n1/N=C(\N=N\c1ccc(Cl)cc1)c1cccc(-c2ccco2)c1`, for which the GI50 in the assay with HOP-92 is 16.1 µM (inactive); in the assay on LOX IMVI it was 28.9 µM (inactive); in the assay with SF-268, 19.7 µM (inactive); with SK-MEL-28 it was 16.8 µM (inactive); with COLO 205, 31.8 µM (inactive); in the assay on CCRF-CEM, 24.6 µM (inactive). In addition, the GI50 in the assay with HT-29 was 34.3 µM (inactive); with RXF 393 it was 20.3 µM (inactive); with A498, 61.8 µM (inactive); with SN12C, 29.2 µM (inactive); in the assay with HCT-15 it was 30.2 µM; in the assay with SK-OV-3, 30.3 µM (inactive). The GI50 was 22.3 µM (inactive) in the assay with K562 and 34.1 µM (inactive) in the assay with M14.
Turning to `c1ccc(NCn2cnc3ccccc32)cc1`, the GI50 with LOX IMVI is 8.18 µM (inactive); with SF-268, 74.8 µM (inactive); with SK-MEL-28, > 100 µM (inactive); in the assay on COLO 205 it was > 100 µM (inactive); with NCI-H226, > 100 µM (inactive); in the assay on CCRF-CEM, 37.1 µM (inactive). Further, the GI50 in the assay with HT-29 was 36.3 µM (inactive); with RXF 393 it was > 100 µM (inactive); with A498, > 100 µM (inactive); with SNB-19 it was > 100 µM (inactive); in the assay with SN12C, > 100 µM (inactive); with HCT-15, 15.6 µM. Further, the GI50 in the assay on SK-OV-3 is > 100 µM (inactive); with K562, 20.8 µM (inactive); with KM12, > 100 µM (inactive).
`Fc1ccc(C2SCc3nc4ccccc4n32)cc1F` (stereo unspecified): the GI50 in the assay on SF-268 was 50.4 µM (inactive); in the assay on SK-MEL-28, 23.4 µM (inactive); in the assay on COLO 205, 27.6 µM (inactive); in the assay with CCRF-CEM, 34.1 µM (inactive); with RXF 393 it was 24.2 µM (inactive); in the assay on A498 it was 36.2 µM (inactive). Further, the GI50 in the assay with SNB-19 is 29.6 µM (inactive); in the assay on SN12C it was 41.7 µM (inactive); in the assay with HCT-15 it was 35.7 µM; in the assay on SK-OV-3, 46.5 µM (inactive); in the assay with K562 it was 24.2 µM (inactive); in the assay with M14, 25.7 µM (inactive). Also, in the assay with KM12, the GI50 is 27.6 µM (inactive).
Consider `COC(=O)C1=C(C(=O)OC)C23C=CC=CC24C(C(=O)OC)=C(C(=O)OC)C4C1C3` (stereo unspecified), for which the GI50 in the assay with HOP-92 is > 100 µM (inactive); in the assay on SF-268, > 100 µM (inactive); in the assay on SK-MEL-28, > 100 µM (inactive); in the assay on COLO 205, > 100 µM (inactive); with CCRF-CEM it was 69.7 µM (inactive); with HT-29, > 100 µM (inactive). The GI50 was > 100 µM (inactive) in the assay with RXF 393; > 100 µM (inactive) in the assay with SNB-19; > 100 µM (inactive) with SN12C; 59.8 µM in the assay with HCT-15; 30.5 µM (inactive) with K562; > 100 µM (inactive) in the assay with M14. In the assay with KM12, the GI50 was > 100 µM (inactive).
As for `CC(=O)NS(=O)(=O)c1ccc(NC(=O)COC(=O)c2cccc3c(=O)c4ccccc4[nH]c23)cc1`, the GI50 in the assay with LOX IMVI, with SK-MEL-28, in the assay with COLO 205, in the assay with NCI-H226, in the assay on CCRF-CEM and with HT-29 was > 100 µM (inactive) in each case. The GI50 in the assay on RXF 393 is > 100 µM (inactive); with SNB-19, > 100 µM (inactive); in the assay with SN12C, > 100 µM (inactive); in the assay on HCT-15 it was above 100 µM; in the assay with SK-OV-3, > 100 µM (inactive); in the assay with K562 it was > 100 µM (inactive). The GI50 in the assay with M14 and in the assay on KM12 was > 100 µM (inactive) in each case.
Consider `NC1C[C@H](n2cc(/C=C/Br)c(=O)[nH]c2=O)C[C@@H]1CO` (stereo partly specified), for which the GI50 with LOX IMVI, in the assay on SF-268, with SK-MEL-28, in the assay with COLO 205, with NCI-H226 and in the assay on CCRF-CEM was > 100 µM (inactive) throughout. For the same compound, the GI50 in the assay on HT-29 was > 100 µM (inactive); in the assay with RXF 393, > 100 µM (inactive); in the assay on A498, > 100 µM (inactive); in the assay with SNB-19 it was > 100 µM (inactive); in the assay on SN12C, > 100 µM (inactive); with HCT-15, above 100 µM. Moreover, the GI50 in the assay on SK-OV-3, with K562 and in the assay on M14 was > 100 µM (inactive) throughout.
In the case of `COc1ccc2c(c1)[n+]([O-])c(-c1ccc(OC)c(OC)c1)c(N)[n+]2[O-]`, the GI50 in the assay with LOX IMVI is > 100 µM (inactive); in the assay with SF-268, 35.2 µM (inactive); in the assay on SK-MEL-28, 25.4 µM (inactive); in the assay on COLO 205 it was 18.7 µM (inactive); in the assay with NCI-H226 it was > 100 µM (inactive); in the assay with CCRF-CEM, 84.1 µM (inactive). For the same compound, the GI50 in the assay on HT-29 was 52.1 µM (inactive); with A498 it was > 100 µM (inactive); with SNB-19, 83.2 µM (inactive); in the assay with SN12C it was 68.9 µM (inactive); with HCT-15, 37.2 µM; with SK-OV-3 it was > 100 µM (inactive). Besides, the GI50 was 72.1 µM (inactive) in the assay on K562, 57.4 µM (inactive) in the assay with M14 and 98.2 µM (inactive) in the assay with KM12.
With `COC(=O)CCC(NC(=S)N/N=C(\C)c1ccco1)C(=O)OC` (stereo unspecified), the GI50 with LOX IMVI, with SF-268, with SK-MEL-28, in the assay on COLO 205, in the assay on NCI-H226 and with CCRF-CEM was > 100 µM (inactive) each time. The GI50 with HT-29 was > 100 µM (inactive); with RXF 393, > 100 µM (inactive); in the assay with A498, > 100 µM (inactive); in the assay with SNB-19 it was > 100 µM (inactive); in the assay on SN12C, > 100 µM (inactive); in the assay with HCT-15 it was above 100 µM. Besides, the GI50 in the assay on SK-OV-3, with K562, in the assay on M14 and with KM12 was > 100 µM (inactive) in each case.
For the compound `Cc1cc2c(c(C(=O)O)c1C)-c1cccc(F)c1C2=O`, the GI50 in the assay on LOX IMVI is > 100 µM (inactive); in the assay with SF-268 it was > 100 µM (inactive); with SK-MEL-28 it was > 100 µM (inactive); in the assay on COLO 205 it was > 100 µM (inactive); in the assay on NCI-H226, 55.1 µM (inactive); with CCRF-CEM, > 100 µM (inactive). Moreover, the GI50 in the assay on HT-29 was > 100 µM (inactive); in the assay with RXF 393, 66.7 µM (inactive); with SNB-19, 67.8 µM (inactive); with SN12C, > 100 µM (inactive); in the assay on HCT-15 it was above 100 µM; in the assay with SK-OV-3, > 100 µM (inactive). The GI50 with K562, in the assay on M14 and with KM12 was > 100 µM (inactive) each time.
